From US20130253179A1, “Functionalization Processes and Reactants Used in Such Processes Using an Isatoic Anhydride or a Derivative Thereof, Biological Molecules Thus Treated and Kits” (priority 2010, published 2013)

Assays:
[1] = system: ORN with 27 bases in mixture with an ODN with 27 bases; assay: Selective functionalisation, capture, cleaving and elution of an ORN from an ORN/ODN mixture (HPLC 260 nm); details: injection 2, after two functionalisation/precipitation steps, 65° C. 1 h
Experimental: We have a 27-mer ODN (Eurogentec ref. 21438-DNA batch #2177673, Sequence: 5′-AAC-CGC-AGT-GAC-ACC-CTC-ATC-ATT-ACA-3′) in 650 μM solution in water, and a 27-mer ORN (Eurogentec ref. 21437-RNA batch #2177672, Sequence: 5′-AAC-CGC-AGU-GAC-ACC-CUC-AUC-AUU-ACA-3′) in 952 μM solution in water. 15.4 μL of ODN and 17.5 μL of ORN are mixed and topped up with 67.1 μL of ultrapure water.
80 μL of the mixture (8 nmoles) are evaporated until dry and taken up in: 10 μL of water, 5 μL of isatoic anhydride Biot PEG4(SS)IA Me (24); […]), in 480 mM DMF solution, and 5 μL of Triethyl ammonium acetate buffer in 1 M solution in water. The medium is placed in the oven at 65° C. for one hour.
The medium is then subjected to a triple precipitation with lithium perchlorate LiClO4 and with acetone, in order to free it from the residual BiotPEG4 (SS) IA Me: 18 μL of LiClO4 in 3M solution in water and 262 μL of water are added to the medium. After vortex stirring, 900 μL of acetone are added, then the medium is agitated once again and centrifuged (5 minutes at 13,000 rpm at ambient temperature). The supernatant is then removed carefully and the same method is repeated twice more with 18 μL of LiClO4 and 282 μL of water. Finally, the medium is washed with 900 μL of acetone before stirring and centrifuging. The greater part of the supernatant is removed carefully before drying in the rotary evaporator. […]

MAQC RNA = assay: DoL of MAQC total RNA after zinc acetate cleaving and alkaline phosphatase treatment; format: biochemical, human; details: compound 15 mM
Experimental: The panel of RNA strands is MAQC RNA (Stratagene Reference: #74000). This total RNA (ribosomal and messenger) is directly extracted from ten lines of human cells of different origin: brain, breast, B Lymphocyte, uterine cervix, liver, liposarcoma, macrophage, skin, testicle, Lymphocyte T.
The functionalisation protocol is the same as that described in example 9, i.e.: • 12 μg of MAQC0 RNA is incubated, or not, with a Zinc acetate solution. • The mixture is precipitated with isopropanol. • 7 units of alkaline phosphatase (P7923-2KU Sigma-Aldrich) are added to the mixture, […] There is then added to the mixture the molecule Cy3-IA Me 13 at 15 mM in a NaHCO3 buffer (100 mM/DMSO 75/25 pH 8-8.5), with a total volume of 80 μl. The mixture is incubated for 1 h at 65° C. • The mixture is precipitated once again with isopropanol, then twice with acetone, before the DoL is measured as described in example 9.

SMILES | initial ORN functionalised [1] [%] | DoL (MAQC RNA; 10 mM Zn(OAc)2 0 mins, AP hydrolysis 0) [%] | DoL (MAQC RNA; 10 mM Zn(OAc)2 0 mins, AP hydrolysis 4 h) [%] | DoL (MAQC RNA; 10 mM Zn(OAc)2 15 mins, AP hydrolysis 0) [%] | DoL (MAQC RNA; 10 mM Zn(OAc)2 15 mins, AP hydrolysis 4 h) [%]
Cn1c(=O)oc(=O)c2cc(NC(=O)CCSSCCNC(=O)CCOCCOCCOCCOCCNC(=O)CCCCC3SCC4NC(=O)NC43)ccc21 (centres unmarked) [5Biot PEG4 SS IA Me 24] | 95 |  |  |  | 
CCN1/C(=C\C=C\C2=[N+](CCCCCC(=O)Nc3ccc4c(c3)c(=O)oc(=O)n4C)c3ccc(S(=O)(=O)[O-])cc3C2(C)C)C(C)(C)c2cc(S(=O)(=O)[O-])ccc21.[K+] [Cy3 IA Me 13, 1-methyl 5-Cy3-isatoic anhydride] |  | 1.7 | 1.5 | 1.7 | 2.5
